According to US6777422B2, “Substituted tetrahydroisoquinolines as C5a receptor modulators” (Neurogen Corp., priority 2002, dated 2004):
pKi: −log10 of the molar value.

What follows are compounds tested against T1, human C5a receptor (Homo sapiens, UniProt P21730) (assay: C5a receptor mediated calcium mobilization assay (Example 20)). Details: differentiated U937 cells, read-out: Ca2+ (Ki in the standard assay of C5a receptor mediated calcium mobilization).
T1 construct: endogenous in cells; host or cells: U937 cells differentiated with 1 mM dibutyryl cAMP
T1 sequence (P21730 1-350): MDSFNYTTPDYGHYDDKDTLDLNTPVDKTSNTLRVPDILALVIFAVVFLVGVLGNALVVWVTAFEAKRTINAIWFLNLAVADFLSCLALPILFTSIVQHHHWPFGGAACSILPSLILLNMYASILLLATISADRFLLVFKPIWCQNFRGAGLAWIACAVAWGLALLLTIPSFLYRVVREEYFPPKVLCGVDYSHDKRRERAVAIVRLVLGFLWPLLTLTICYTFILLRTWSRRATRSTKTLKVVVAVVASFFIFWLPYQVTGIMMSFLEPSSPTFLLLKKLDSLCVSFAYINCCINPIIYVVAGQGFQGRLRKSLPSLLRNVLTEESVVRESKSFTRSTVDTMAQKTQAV
Assay type: cell-based
Procedure: Calcium Mobilization Assays
U937 cells are grown in differentiation media (1 mM dibutyryl cAMP in RPMI 1640 medium containing 10% fetal bovine serum) for 48 hrs at 37° C. then reseeded onto 96-well plates suitable for use in a FLIPR™ Plate Reader (Molecular Devices Corp., Sunnyvale Calif.). Cells are grown an additional 24 hours (to 70-90% confluence) before the assay. The cells are then washed once with Krebs Ringer solution. FLUO-3 calcium sensitive dye (Molecular Probes, Inc. Eugene, Oreg.) is added to 10 μg/mL and incubated with the cells at room temperature for 1 to 2 hours. The 96 well plates are then washed to remove excess dye. Fluorescence responses, measured by excitation at 480 nm and emission at 530 nm, are monitored upon the addition of human C5a to the cells to a final concentration of 0.01-30.0 nM, using the FLIPR™ device (Molecular Devices).
C. Assays for the Identification of Receptor Modulatory Agents: Antagonists and Agonists
The calcium mobilization assay described above may be readily adapted for identifying test compounds that have agonist or antagonist activity at the human C5a receptor.
For example, in order to identify antagonist compounds, differentiated U937 cells are washed and incubated with Fluo-3 dye as described above. One hour prior to measuring the fluorescence signal, a subset of the cells is incubated with 1 μM of at least one compound to be tested. The fluorescence response upon the subsequent addition of 0.3 nM (final concentration) human recombinant C5a is monitored using the FLIPR™ plate reader. Antagonist compounds elicit at least a 2-fold decrease in the fluorescence response relative to that measured in the presence of human C5a alone. Preferred antagonist compounds elicit at least a 5-fold, preferably at least a 10-fold, and more preferably at least a 20-fold decrease in the fluorescence response relative to that measured in the presence of human C5a alone.

| pKi | Structure (SMILES) |
| --- | --- |
| > 6.00 | O=C(CN1CCc2ccccc2[C@H]1c1ccccc1Br)N(Cc1ccccc1F)C1Cc2ccccc2C1 (stereo in doubt) [Compound 22, 2-[1-(2-bromophenyl)-3,4-dihydroisoquinolin-2(1H)-yl]-N-(indan-2-yl)-N-(2-fluorobenzyl)acetamide] |
| > 6.00 | Cc1ccccc1C1c2ccccc2CCN1CC(=O)N(Cc1ccccc1F)C1Cc2ccccc2C1 (stereo in doubt) [Compound 28, N-(indan-2-yl)-N-(2-fluorobenzyl)-2-[(1S)-1-(2-methylphenyl)-3,4-dihydroisoquinolin-2(1H)-yl]acetamide] |
| > 6.00 | O=C(CN1CCc2ccccc2[C@H]1c1cccc(Cl)c1Cl)N(Cc1ccccc1F)C1Cc2ccccc2C1 (stereo in doubt) [Compound 36, 2-[1-(2,3-dichlorophenyl)-3,4-dihydroisoquinolin-2(1H)-yl]-N-(indan-2-yl)-N-(2-fluorobenzyl)acetamide] |
| > 6.00 | Cc1ccc(Cl)cc1[C@@H]1c2ccccc2CCN1CC(=O)N(Cc1ccccc1F)C1Cc2ccccc2C1 (stereo in doubt) [Compound 51, 2-[1-(5-chloro-2-methylphenyl)-3,4-dihydroisoquinolin-2(1H)-yl]-N-(indan-2-yl)-N-(2-fluorobenzyl)acetamide] |
| > 6.00 | Cc1ccc(Cl)c([C@@H]2c3ccccc3CCN2CC(=O)N(Cc2ccccc2F)C2Cc3ccccc3C2)c1 (stereo in doubt) [Compound 52, 2-[1-(2-chloro-5-methylphenyl)-3,4-dihydroisoquinolin-2(1H)-yl]-N-(indan-2-yl)-N-(2-fluorobenzyl)acetamide] |
| > 6.00 | COc1cccc2c1C(c1ccccc1C)N(CC(=O)N(Cc1ccccc1F)C1Cc3ccccc3C1)CC2 (centres unmarked) [Compound 14, N-(indan-2-yl)-N-(2-fluorobenzyl)-2-[8-methoxy-1-(2-methylphenyl)-3,4-dihydroisoquinolin-2(1H)-yl]acetamide] |
| > 6.00 | COc1ccccc1C1c2ccccc2CCN1CC(=O)N(Cc1ccccc1F)C1Cc2ccccc2C1 (centres unmarked) [Compound 24, N-(indan-2-yl)-N-(2-fluorobenzyl)-2-[1-(2-methoxyphenyl)-3,4-dihydroisoquinolin-2(1H)-yl]acetamide] |
| > 6.00 | Cc1cccc(C2c3ccccc3CCN2CC(=O)N(Cc2ccccc2F)C2Cc3ccccc3C2)c1C (centres unmarked) [Compound 25, N-(indan-2-yl)-2-[1-(2,3-dimethylphenyl)-3,4-dihydroisoquinolin-2(1H)-yl]-N-(2-fluorobenzyl)acetamide] |
| > 6.00 | Cc1ccccc1[C@@H]1c2ccccc2CCN1CC(=O)N(Cc1ccccc1F)C1Cc2ccccc2C1 [Compound 26, N-(indan-2-yl)-N-(2-fluorobenzyl)-2-[(1R)-1-(2-methylphenyl)-3,4-dihydroisoquinolin-2(1H)-yl]acetamide] |
| > 6.00 | CCc1ccccc1C1c2ccccc2CCN1CC(=O)N(Cc1ccccc1F)C1Cc2ccccc2C1 (centres unmarked) [Compound 29, N-(indan-2-yl)-2-[1-(2-ethylphenyl)-3,4-dihydroisoquinolin-2(1H)-yl]-N-(2-fluorobenzyl)acetamide] |

The remaining lines, values behind:

| Structure (SMILES) | pKi |
| --- | --- |
| Cc1ccccc1[C@@H]1c2ccccc2CCN1[C@@H](C)C(=O)N(Cc1ccccc1F)C1Cc2ccccc2C1 (relative stereo) [Compound 19, N-(indan-2-yl)-N-(2-fluorobenzyl)-2-[1-(2-methylphenyl)-3,4-dihydroisoquinolin-2(1H)-yl]propanamide] | > 6.00 |
| Cc1ccccc1C1c2ccccc2[C@@H](C)CN1CC(=O)N(Cc1ccccc1F)C1Cc2ccccc2C1 (stereo in doubt) [Compound 30, N-(2-Fluoro-benzyl)-N-indan-2-yl-2-(4-methyl-1-o-tolyl-3,4-dihydro-1H-isoquinolin-2-yl)-acetamide] | > 6.00 |
| Cc1ccccc1[C@@H]1c2ccccc2CCN1[C@@H](C)C(=O)N(Cc1ccccc1F)C1Cc2ccccc2C1 (stereo in doubt) [Compound 34, (2S)-N-(indan-2-yl)-N-(2-fluorobenzyl)-2-[(1R)-1-(2-methylphenyl)-3,4-dihydroisoquinolin-2(1H)-yl]propanamide] | > 6.00 |
| Cc1ccccc1[C@H]1c2ccccc2CCN1[C@@H](C)C(=O)N(Cc1ccccc1F)C1Cc2ccccc2C1 (stereo in doubt) [Compound 39, (2S)-N-(indan-2-yl)-N-(2-fluorobenzyl)-2-[(1S)-1-(2-methylphenyl)-3,4-dihydroisoquinolin-2(1H)-yl]propanamide] | > 6.00 |
| Cc1ccccc1[C@@H]1c2ccccc2[C@@H](C)CN1CC(=O)N(Cc1ccccc1F)C1Cc2ccccc2C1 (stereo in doubt) [Compound 46, N-(indan-2-yl)-N-(2-fluorobenzyl)-2-[(1R,4R)-4-methyl-1-(2-methylphenyl)-3,4-dihydroisoquinolin-2(1H)-yl]acetamide] | > 6.00 |
| Cc1ccc(C)c([C@@H]2c3ccccc3CCN2CC(=O)N(Cc2ccccc2F)C2Cc3ccccc3C2)c1 (stereo in doubt) [Compound 49, N-(indan-2-yl)-2-[1-(2,5-dimethylphenyl)-3,4-dihydroisoquinolin-2(1H)-yl]-N-(2-fluorobenzyl)acetamide] | > 6.00 |
| Cc1ccccc1[C@@H]1c2c(ccc(C)c2C)CCN1CC(=O)N(Cc1ccccc1F)C1Cc2ccccc2C1 (stereo in doubt) [Compound 73, N-(indan-2-yl)-2-[7,8-dimethyl-1-(2-methylphenyl)-3,4-dihydroisoquinolin-2(1H)-yl]-N-(2-fluorobenzyl)acetamide] | > 6.00 |
| Cc1ccccc1[C@@H]1c2c(C)cccc2CCN1CC(=O)N(Cc1ccccc1F)C1Cc2ccccc2C1 (stereo in doubt) [Compound 78, N-(indan-2-yl)-N-(2-fluorobenzyl)-2-[8-methyl-1-(2-methylphenyl)-3,4-dihydroisoquinolin-2(1H)-yl]acetamide] | > 6.00 |
| CCC1(c2ccccc2C)c2ccccc2CCN1CC(=O)N(Cc1ccccc1F)C1Cc2ccccc2C1 (centres unmarked) [Compound 16, N-(indan-2-yl)-2-[1-ethyl-1-(2-methylphenyl)-3,4-dihydroisoquinolin-2(1H)-yl]-N-(2-fluorobenzyl)acetamide] | > 6.00 |
| Cc1ccccc1C1c2ccccc2[C@@H](C)CN1CC(=O)N(Cc1ccccc1F)C1Cc2ccccc2C1 (stereo partly drawn) [Compound 27, N-(indan-2-yl)-N-(2-fluorobenzyl)-2-[(4R)-4-methyl-1-(2-methylphenyl)-3,4-dihydroisoquinolin-2(1H)-yl]acetamide] | > 6.00 |
| Cc1ccccc1C1c2ccccc2CCN1Cc1cnc(-c2ccccc2)n1C1Cc2ccccc2C1 (centres unmarked) [Compound 33, 2-{[1-(indan-2-yl)-2-phenyl-1H-imidazol-5-yl]methyl}-1-(2-methylphenyl)-1,2,3,4-tetrahydroisoquinoline] | > 6.00 |

Same assay, conditions: differentiated U937 cells, unit inferred, read-out: Ca2+ (numeric value, C5a receptor mediated calcium mobilization)

| pKi | Structure (SMILES) |
| --- | --- |
| 7.88 | Cc1ccccc1[C@@H]1C2=C(CCCC2)CCN1CC(=O)N(Cc1ccccc1F)C1Cc2ccccc2C1 (stereo in doubt) [Compound 131, N-(2-Fluoro-benzyl)-N-indan-2-yl-2-(1-o-tolyl-3,4,5,6,7,8-hexahydro-1H-isoquinolin-2-yl)-acetamide] |
| 6.94 | Cc1ccccc1[C@@H]1CCCCN1[C@@H](C)C(=O)N(Cc1ccccc1F)C1Cc2ccccc2C1 (stereo in doubt) [Compound 132, N-(2-Fluoro-benzyl)-N-indan-2-yl-2-(2-o-tolyl-piperidin-1-yl)-propionamide] |
